Measured values from publication PMC4051630, “A Comparison of Protein Kinases Inhibitor Screening Methods Using Both Enzymatic Activity and Binding Affinity Determination” (PLoS ONE, 2014).
Where two headings read alike, the source gives them in different places.

Columns and labels:
Assay in all cases: Differential Scanning Fluorimetry (DSF) Tm shift
Format in all cases: binding
AKT3 Catalytic Domain = molecular target: T1, AKT3 Catalytic Domain (Homo sapiens, UniProt Q9Y243); settings: 2 µM protein, 10 µM inhibitor, average of 3 experiments, each in duplicate
T1 construct: AKT3 (Q9Y243); CD; His-tag; made in house; host or cells: Escherichia coli
T1 sequence (Q9Y243 122-479): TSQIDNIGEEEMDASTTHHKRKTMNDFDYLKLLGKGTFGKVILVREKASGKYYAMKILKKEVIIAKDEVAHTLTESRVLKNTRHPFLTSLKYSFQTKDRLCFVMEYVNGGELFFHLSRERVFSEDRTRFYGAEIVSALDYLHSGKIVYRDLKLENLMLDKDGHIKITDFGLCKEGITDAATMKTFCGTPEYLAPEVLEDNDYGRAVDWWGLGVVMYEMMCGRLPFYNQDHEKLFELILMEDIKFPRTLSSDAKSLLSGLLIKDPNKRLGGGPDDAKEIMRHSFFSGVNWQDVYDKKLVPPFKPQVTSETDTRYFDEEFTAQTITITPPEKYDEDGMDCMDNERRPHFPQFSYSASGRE

CDK2 + Cyclin A = molecular target: T2, CDK2 + Cyclin A (Homo sapiens, UniProt P24941)
T2 construct: CDK2 (P24941); 1–299; His-tag; made in house; host or cells: Escherichia coli

CDK2 + Cyclin E = molecular target: T3, CDK2 + Cyclin E (Homo sapiens, UniProt P24941)
T3 construct: CDK2 (P24941); 1–299; His-tag; made in house; host or cells: Escherichia coli

CHK2 Catalytic Domain = molecular target: T4, CHK2 Catalytic Domain (Homo sapiens, UniProt O96017); settings: 2 µM protein, 10 µM inhibitor, average of 3 experiments, each in duplicate
T4 construct: For all of them, we expressed and purified the catalytic domain separately; His-tag; made in house; host or cells: Escherichia coli
T4 sequence (O96017 220-486 limits assumed): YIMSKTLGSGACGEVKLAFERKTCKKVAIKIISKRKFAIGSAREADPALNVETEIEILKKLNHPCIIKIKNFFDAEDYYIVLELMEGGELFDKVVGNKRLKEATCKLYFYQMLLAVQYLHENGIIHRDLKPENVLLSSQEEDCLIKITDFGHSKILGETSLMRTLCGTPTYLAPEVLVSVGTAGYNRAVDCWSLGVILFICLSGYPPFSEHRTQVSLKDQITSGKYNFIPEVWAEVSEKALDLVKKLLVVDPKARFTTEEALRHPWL

DMPK Catalytic Domain = molecular target: T5, DMPK Catalytic Domain (Homo sapiens, UniProt Q09013); settings: 2 µM protein, 10 µM inhibitor, average of 3 experiments, each in duplicate
T5 construct: For all of them, we expressed and purified the catalytic domain separately; His-tag; made in house; host or cells: Escherichia coli
T5 sequence (Q09013 71-339 limits assumed): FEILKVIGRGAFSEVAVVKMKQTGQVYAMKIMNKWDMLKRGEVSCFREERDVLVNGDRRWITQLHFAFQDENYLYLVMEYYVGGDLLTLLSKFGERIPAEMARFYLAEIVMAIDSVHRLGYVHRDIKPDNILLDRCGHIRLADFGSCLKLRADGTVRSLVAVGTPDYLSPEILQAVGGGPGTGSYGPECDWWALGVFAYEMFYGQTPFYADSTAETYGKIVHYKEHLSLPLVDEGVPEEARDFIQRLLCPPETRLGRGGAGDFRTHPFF

FAK2 Catalytic Domain = molecular target: T6, FAK2 Catalytic Domain (Homo sapiens, UniProt Q14289); settings: 2 µM protein, 10 µM inhibitor, average of 3 experiments, each in duplicate
T6 construct: For all of them, we expressed and purified the catalytic domain separately; His-tag; made in house; host or cells: Escherichia coli
T6 sequence (Q14289 425-683 limits assumed): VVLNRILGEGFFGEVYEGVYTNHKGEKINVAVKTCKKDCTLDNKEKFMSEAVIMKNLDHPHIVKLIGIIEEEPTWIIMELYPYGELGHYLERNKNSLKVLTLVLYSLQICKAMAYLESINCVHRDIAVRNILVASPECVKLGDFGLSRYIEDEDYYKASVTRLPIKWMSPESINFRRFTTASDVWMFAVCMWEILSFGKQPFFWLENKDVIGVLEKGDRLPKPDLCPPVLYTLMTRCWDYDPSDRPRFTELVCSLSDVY

FES Catalytic Domain+SH2 = molecular target: T7, FES Catalytic Domain+SH2 (Homo sapiens, UniProt P07332); settings: 2 µM protein, 10 µM inhibitor, average of 3 experiments, each in duplicate
T7 construct: for 8, we also made a longer version containing one or more additional domains; His-tag; made in house; host or cells: Escherichia coli
T7 sequence (P07332 448-822 limits assumed): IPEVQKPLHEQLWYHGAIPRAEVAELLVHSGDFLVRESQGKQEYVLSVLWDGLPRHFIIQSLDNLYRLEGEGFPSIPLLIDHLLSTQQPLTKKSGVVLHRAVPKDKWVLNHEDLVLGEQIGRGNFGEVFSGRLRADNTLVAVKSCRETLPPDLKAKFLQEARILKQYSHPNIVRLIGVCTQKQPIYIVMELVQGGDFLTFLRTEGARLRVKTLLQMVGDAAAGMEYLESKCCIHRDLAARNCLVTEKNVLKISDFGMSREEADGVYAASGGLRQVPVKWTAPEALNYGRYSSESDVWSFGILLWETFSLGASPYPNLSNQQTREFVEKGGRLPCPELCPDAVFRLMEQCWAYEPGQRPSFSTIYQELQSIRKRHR

FES Catalytic Domain = molecular target: T8, FES Catalytic Domain (Homo sapiens, UniProt P07332); settings: 2 µM protein, 10 µM inhibitor, average of 3 experiments, each in duplicate
T8 construct: For all of them, we expressed and purified the catalytic domain separately; His-tag; made in house; host or cells: Escherichia coli
T8 sequence (P07332 561-822 limits assumed): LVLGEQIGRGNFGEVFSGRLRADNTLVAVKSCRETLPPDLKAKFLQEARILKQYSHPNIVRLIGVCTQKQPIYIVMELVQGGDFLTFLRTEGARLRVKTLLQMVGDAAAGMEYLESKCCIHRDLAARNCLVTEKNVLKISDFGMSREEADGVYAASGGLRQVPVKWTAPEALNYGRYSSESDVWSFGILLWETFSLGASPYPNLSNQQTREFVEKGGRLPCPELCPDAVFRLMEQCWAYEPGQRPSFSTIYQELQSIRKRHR

[1] = molecular target: T9, PAK4 Catalytic Domain+PBD (Homo sapiens, UniProt O96013); settings: 2 µM protein, 10 µM inhibitor, average of 3 experiments, each in duplicate
T9 construct: for 8, we also made a longer version containing one or more additional domains; His-tag; made in house; host or cells: Escherichia coli
T9 sequence (O96013 whole entry, the tested form may be a part): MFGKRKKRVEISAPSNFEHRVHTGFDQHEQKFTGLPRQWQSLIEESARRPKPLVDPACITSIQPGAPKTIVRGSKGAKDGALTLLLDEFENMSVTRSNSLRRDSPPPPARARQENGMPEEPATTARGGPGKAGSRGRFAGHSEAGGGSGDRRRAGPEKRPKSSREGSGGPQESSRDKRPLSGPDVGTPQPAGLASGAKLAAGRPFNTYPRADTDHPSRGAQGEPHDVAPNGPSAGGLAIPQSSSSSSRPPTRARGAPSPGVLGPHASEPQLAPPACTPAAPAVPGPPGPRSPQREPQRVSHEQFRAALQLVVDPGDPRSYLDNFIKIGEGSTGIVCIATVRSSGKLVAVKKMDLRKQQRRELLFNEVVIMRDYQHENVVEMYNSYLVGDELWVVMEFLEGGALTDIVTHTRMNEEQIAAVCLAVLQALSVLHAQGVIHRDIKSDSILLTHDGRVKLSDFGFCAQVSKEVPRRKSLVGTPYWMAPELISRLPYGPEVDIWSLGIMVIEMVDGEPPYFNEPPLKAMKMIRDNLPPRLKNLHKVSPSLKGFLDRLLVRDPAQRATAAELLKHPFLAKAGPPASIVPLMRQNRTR

PAK4 Catalytic Domain = molecular target: T10, PAK4 Catalytic Domain (Homo sapiens, UniProt O96013); settings: 2 µM protein, 10 µM inhibitor, average of 3 experiments, each in duplicate
T10 construct: For all of them, we expressed and purified the catalytic domain separately; His-tag; made in house; host or cells: Escherichia coli
T10 sequence (O96013 321-572 limits assumed): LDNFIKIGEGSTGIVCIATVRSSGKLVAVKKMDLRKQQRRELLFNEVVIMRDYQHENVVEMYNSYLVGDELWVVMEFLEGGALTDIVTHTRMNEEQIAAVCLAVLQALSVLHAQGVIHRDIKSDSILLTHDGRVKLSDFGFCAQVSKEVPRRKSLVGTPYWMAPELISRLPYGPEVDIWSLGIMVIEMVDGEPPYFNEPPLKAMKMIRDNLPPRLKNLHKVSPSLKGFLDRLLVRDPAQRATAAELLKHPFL

PAK7 Catalytic Domain = molecular target: T11, PAK7 Catalytic Domain (Homo sapiens, UniProt Q9P286); settings: 2 µM protein, 10 µM inhibitor, average of 3 experiments, each in duplicate
T11 construct: For all of them, we expressed and purified the catalytic domain separately; His-tag; made in house; host or cells: Escherichia coli
T11 sequence (Q9P286 449-700 limits assumed): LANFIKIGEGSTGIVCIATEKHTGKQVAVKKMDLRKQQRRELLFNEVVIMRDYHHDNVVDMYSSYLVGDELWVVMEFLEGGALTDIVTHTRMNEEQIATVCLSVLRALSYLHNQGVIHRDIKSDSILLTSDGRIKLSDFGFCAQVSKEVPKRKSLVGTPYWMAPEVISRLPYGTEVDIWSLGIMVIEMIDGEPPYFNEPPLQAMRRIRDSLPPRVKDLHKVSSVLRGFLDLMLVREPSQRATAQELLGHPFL

[2] = molecular target: SRC Catalytic Domain+SH2+SH3 (Homo sapiens, UniProt P12931); settings: 2 µM protein, 10 µM inhibitor, average of 3 experiments, each in duplicate
Chain of SRC Catalytic Domain+SH2+SH3 (P12931 84-523 limits assumed): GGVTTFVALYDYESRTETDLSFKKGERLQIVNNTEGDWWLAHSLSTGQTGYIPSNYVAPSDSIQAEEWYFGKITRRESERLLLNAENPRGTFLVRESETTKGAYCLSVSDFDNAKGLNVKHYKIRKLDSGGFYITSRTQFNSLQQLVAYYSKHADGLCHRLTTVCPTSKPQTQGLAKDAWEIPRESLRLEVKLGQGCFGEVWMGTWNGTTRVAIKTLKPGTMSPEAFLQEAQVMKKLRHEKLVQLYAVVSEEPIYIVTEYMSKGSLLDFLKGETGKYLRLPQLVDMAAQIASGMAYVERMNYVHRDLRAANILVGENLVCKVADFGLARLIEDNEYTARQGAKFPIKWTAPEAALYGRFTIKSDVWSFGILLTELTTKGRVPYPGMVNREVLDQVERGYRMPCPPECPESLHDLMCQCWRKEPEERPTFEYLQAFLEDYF

[3] = molecular target: T12, STK3 Catalytic domain+SARAH (Homo sapiens, UniProt Q13188); settings: 2 µM protein, 10 µM inhibitor, average of 3 experiments, each in duplicate
T12 construct: for 8, we also made a longer version containing one or more additional domains; His-tag; made in house; host or cells: Escherichia coli
T12 sequence (Q13188 1-491): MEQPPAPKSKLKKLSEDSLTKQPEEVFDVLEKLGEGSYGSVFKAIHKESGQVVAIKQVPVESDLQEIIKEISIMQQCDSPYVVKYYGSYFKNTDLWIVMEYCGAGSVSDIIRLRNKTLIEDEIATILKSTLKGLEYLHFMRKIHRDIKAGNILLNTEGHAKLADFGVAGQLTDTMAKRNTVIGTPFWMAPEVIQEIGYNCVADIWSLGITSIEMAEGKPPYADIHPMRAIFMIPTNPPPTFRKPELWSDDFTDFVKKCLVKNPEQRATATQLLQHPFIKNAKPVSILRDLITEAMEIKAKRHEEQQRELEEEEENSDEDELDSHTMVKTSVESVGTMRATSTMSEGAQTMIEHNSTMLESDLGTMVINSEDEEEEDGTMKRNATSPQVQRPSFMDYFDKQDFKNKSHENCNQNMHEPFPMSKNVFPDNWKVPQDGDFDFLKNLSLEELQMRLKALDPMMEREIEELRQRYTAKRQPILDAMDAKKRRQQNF

STK3 Catalytic Domain = molecular target: T13, STK3 Catalytic Domain (Homo sapiens, UniProt Q13188); settings: 2 µM protein, 10 µM inhibitor, average of 3 experiments, each in duplicate
T13 construct: For all of them, we expressed and purified the catalytic domain separately; His-tag; made in house; host or cells: Escherichia coli
T13 sequence (Q13188 27-278 limits assumed): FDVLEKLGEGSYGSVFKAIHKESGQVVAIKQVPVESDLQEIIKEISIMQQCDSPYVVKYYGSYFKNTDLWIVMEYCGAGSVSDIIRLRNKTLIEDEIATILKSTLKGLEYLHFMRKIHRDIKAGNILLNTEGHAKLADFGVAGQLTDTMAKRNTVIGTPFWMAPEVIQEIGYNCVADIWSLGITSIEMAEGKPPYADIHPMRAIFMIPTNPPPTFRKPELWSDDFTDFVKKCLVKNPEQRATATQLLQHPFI

SRC Catalytic Domain = SRC Catalytic Domain (Homo sapiens, UniProt P12931); set-up: For all of them, we expressed and purified the catalytic domain separately; His-tag; made in house; host or cells: Escherichia coli; settings: 2 µM protein, 10 µM inhibitor, average of 3 experiments, each in duplicate
Chain of SRC Catalytic Domain (P12931 270-523 limits assumed): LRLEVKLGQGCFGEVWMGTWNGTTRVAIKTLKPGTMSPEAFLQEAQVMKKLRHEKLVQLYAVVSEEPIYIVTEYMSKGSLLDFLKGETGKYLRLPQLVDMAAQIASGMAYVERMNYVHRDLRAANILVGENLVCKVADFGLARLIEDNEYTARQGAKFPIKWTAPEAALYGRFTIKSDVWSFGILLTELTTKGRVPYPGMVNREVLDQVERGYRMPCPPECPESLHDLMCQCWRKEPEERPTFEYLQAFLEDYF

[4] = CDK2 + Cyclin A, 2 µM protein, 10 µM inhibitor, average of 3 experiments, each in duplicate
[5] = CDK2 + Cyclin E, 2 µM protein, 10 µM inhibitor, average of 3 experiments, each in duplicate

Melting temperature (Tm) shift (CDK2 + Cyclin A; [4]) [degrees Celcius]	Melting temperature (Tm) shift (CDK2 + Cyclin E; [5]) [degrees Celcius]	Compound	Melting temperature (Tm) shift (AKT3 Catalytic Domain) [degrees Celcius]	Melting temperature (Tm) shift (CHK2 Catalytic Domain) [degrees Celcius]	Melting temperature (Tm) shift (DMPK Catalytic Domain) [degrees Celcius]	Melting temperature (Tm) shift (FAK2 Catalytic Domain) [degrees Celcius]	Melting temperature (Tm) shift (FES Catalytic Domain+SH2) [degrees Celcius]	Melting temperature (Tm) shift (FES Catalytic Domain) [degrees Celcius]	Melting temperature (Tm) shift [1] [degrees Celcius]	Melting temperature (Tm) shift (PAK4 Catalytic Domain) [degrees Celcius]	Melting temperature (Tm) shift (PAK7 Catalytic Domain) [degrees Celcius]	Melting temperature (Tm) shift [2] [degrees Celcius]	Melting temperature (Tm) shift [3] [degrees Celcius]	Melting temperature (Tm) shift (STK3 Catalytic Domain) [degrees Celcius]	Melting temperature (Tm) shift (SRC Catalytic Domain) [degrees Celcius]	Melting temperature (Tm) shift (CDK2 + Cyclin A)	Melting temperature (Tm) shift (CDK2 + Cyclin E)
0.8	0.2	NC(=O)Nc1sc(-c2ccccc2)cc1C(N)=O [IKK-2 Inhibitor VI]	0.0	3.6	1.4	1.4	0.7	1.8	2.5	1.3	1.3	1.1	2.0	2.4	1.3		
2.5	1.4	CCCCc1c(-c2ccc(O)cc2)[nH]c2nccnc12 [Aloisine A, RP107, Aloisine A]	0.1	2.7	1.4	1.2	0.5	0.9	1.3	1.3	1.2	1.1	1.4	1.6	1.5		
		Cc1[nH]c(/C=C2\C(=O)Nc3ccc(S(=O)(=O)N(C)c4cccc(Cl)c4)cc32)c(C)c1C(=O)N1CCN(C)CC1 [Met Kinase Inhibitor]	0.0	1.2	1.2	0.1	0.1	0.6	0.3	0.9	0.2	0.2	0.9	0.7	0.3	0.4	0.1

Compound	Melting temperature (Tm) shift (CDK2 + Cyclin A; [4]) [degrees Celcius]	Melting temperature (Tm) shift (CDK2 + Cyclin E; [5]) [degrees Celcius]	Melting temperature (Tm) shift (AKT3 Catalytic Domain) [degrees Celcius]	Melting temperature (Tm) shift (CHK2 Catalytic Domain) [degrees Celcius]	Melting temperature (Tm) shift (DMPK Catalytic Domain) [degrees Celcius]	Melting temperature (Tm) shift (FAK2 Catalytic Domain) [degrees Celcius]	Melting temperature (Tm) shift (FES Catalytic Domain+SH2) [degrees Celcius]	Melting temperature (Tm) shift (FES Catalytic Domain) [degrees Celcius]	Melting temperature (Tm) shift [1] [degrees Celcius]	Melting temperature (Tm) shift (PAK4 Catalytic Domain) [degrees Celcius]	Melting temperature (Tm) shift (PAK7 Catalytic Domain) [degrees Celcius]	Melting temperature (Tm) shift [2] [degrees Celcius]	Melting temperature (Tm) shift [3] [degrees Celcius]	Melting temperature (Tm) shift (STK3 Catalytic Domain) [degrees Celcius]	Melting temperature (Tm) shift (SRC Catalytic Domain) [degrees Celcius]	Melting temperature (Tm) shift (CDK2 + Cyclin A)	Melting temperature (Tm) shift (CDK2 + Cyclin E)
O=C1Nc2ccc3ncsc3c2/C1=C/c1cnc[nH]1 [PKR Inhibitor]	4.4	4.3	0.3	4.0	0.8	1.1	0.7	3.2	1.8	1.9	1.9	0.3	7.0	4.9	0.7		
